Source: patent publication US4567200A, “Esters of mercapto acyl-carnitines and pharmaceutical compositions containing same” (Sigma-Tau Industrie Farmaceutiche Riunite S.p.A., priority 1981, dated 1986)
Counter-ions that a name gives are not always drawn.

Experiments:
[1] = Acute toxicity in the mouse, Weil method; details: in vivo, ip
Text: The acute toxicity of the compounds of general formula (I) has been studied in the mouse with the Weil method (Weil C.S., Biometr. J. 8, 249, 1952).
The LD50 values of some compounds illustrated in Table I, indicate that the compounds are remarkably well tolerated.
LD50, mg Kg^-1, ep in mice of some mercapto
acyl-carnitine esters of general formula (I).
Weil's method (N = 5, K = 4)

[2] = Protection against X-ray exposure, survival of irradiated rats; type: in vivo, Albino Wister rats; details: 20-25 mg Kg^-1 1 hour before irradiation and 10 mg Kg^-1 per day in subsequent 20 days
Description: The effect of the compounds of formula (I) towards the damages provoked by X-ray exposure was studied.
The experiment animals, Albino Wister rats, treated with the compounds under examination (20-25 mg Kg^-1 1 hour before irradiation and 10 mg Kg^-1 per day in the subsequent 20 days) were irradiated and checked over a time period to detect the onset of toxic effects and the time of survival with respect to the control group.
In table II, the percentage of survival at the 10th, 15th and 20th day from irradiation are reported.

[3] = Cutaneous regeneration from burns in rabbits; type: in vivo; details: 25 mg Kg^-1 oral once a day for seven days
Description: The ability of the compounds of formula (I) to speed up the cutaneous regeneration from burns has been tested in rabbits.
A 4 cm^2 cutaneous area of the average-top zone of the test animal back was burned.
The compounds were orally administered in aqueous solution at the dose of 25 mg Kg^-1 once a day for seven days. The area of cutaneous regeneration, i.e., the area of the newly formed tissue was then measured (Table III).

[4] = Expectorant activity (bronchial secretion), method of Perry et al.; type: in vivo, male rabbits; details: rabbits
Description: The tests were carried out on male rabbits, weighing 2-3 Kg, anesthetized with ethyl urethane, by following the method disclosed by Perry et al. (J. Pharm. Exp. Ther. 73, 65, 1941).
Each cannula was connected to a feeding device which delivered a steady flow-rate of pre-heated air (36°-38° C.) at constant humidity (80%). At the lower end of each cannula, a graduated cylinder was fitted, wherein the bronchial secretion was collected. All of the animals breathed spontaneously and consequently they self-regulated the air intake suitable for normal respiration. After an hour following cannula insertion, the animals were administered orally (by stomach tube) the compounds of general formula (I) dissolved in distilled water at the doses indicated in Table IV. Each dose of drug was administered to 5 animals. The control animals (8) were given water only. The amount of secretion was determined after 1, 2 and 4 hours from administration.

[5] = Mucolytic activity in vitro, thromboelastograph, method of Morandini et al.; details: human sputum
Description: The tests were carried out in vitro by using the method disclosed by Morandini et al. (Lotta contro la tubercolosi 47, n. 4, 1977). A thromboelastograph was used to follow the variations induced by the compounds of general formula (I) and acetylcysteine on the rheological properties of human sputum.

[6] = 1 ml of a 10% solution at dilution 1/30
[7] = 1 ml of a 10% solution at dilution 1/60

| SMILES | LD50 [1] | Percentage of surviving animals ([2]; 10th day from irradiation) | Percentage of surviving animals ([2]; 15th day from irradiation) | Percentage of surviving animals ([2]; 20th day from irradiation) | Percentage of regenerated tissue ([3]; 4th day from treatment) | Percentage of regenerated tissue ([3]; 8th day from treatment) | Percentage variations of bronchial secretion versus values ([4]; oral 15 mg, 2 hours) | Percentage variations of bronchial secretion versus values ([4]; oral 15 mg, 4 hours) | Percentage drop ± s.e. of the tracing versus maximum peak (mucolytic activity index) [5, 6] | Percentage drop ± s.e. of the tracing versus maximum peak (mucolytic activity index) [5, 7] | Percentage variations of bronchial secretion versus values ([4]; oral 15 mg, 1 hour) | Percentage variations of bronchial secretion versus values ([4]; oral 20 mg, 2 hours) | Percentage variations of bronchial secretion versus values ([4]; oral 20 mg, 4 hours) | Percentage variations of bronchial secretion versus values ([4]; oral 20 mg, 1 hour) | Percentage variations of bronchial secretion versus values ([4]; oral 25 mg, 1 hour) | Percentage variations of bronchial secretion versus values ([4]; oral 25 mg, 2 hours) | Percentage variations of bronchial secretion versus values ([4]; oral 25 mg, 4 hours) |
| --- | --- | --- | --- | --- | --- | --- | --- | --- | --- | --- | --- | --- | --- | --- | --- | --- | --- |
| CC(C)COC(=O)CC(C[N+](C)(C)C)OC(=O)C(C)S (stereo not shown) [2-mercapto propionyl carnitine isobutyl ester] | 274 mg/kg | 85% | 70% | 45% | 25% | 65% | -0.1% | +0.5% | 80.4 ± 7% | 42.8 ± 4% |  |  |  |  |  |  |  |
| CC(C)OC(=O)CC(C[N+](C)(C)C)OC(=O)CS (stereo not shown) [mercapto acetyl carnitine hydrochloride isopropyl-ester] | 250 mg/kg | 80% | 55% | 30% | 30% | 70% | +0.7% | +2.1% | 82.5 ± 5% | 44.3 ± 3% | +0.5% |  |  |  |  |  |  |
| CCC(S)C(=O)OC(CC(=O)OCC(C)C)C[N+](C)(C)C (stereo not shown) [2-mercapto butyryl carnitine isobutyl ester] | 236 mg/kg | 95% | 65% | 50% | 35% | 70% |  |  | 95.9 ± 5% | 51.2 ± 3% |  | -0.4% | +0.2% |  |  |  |  |
| CCOC(=O)CC(C[N+](C)(C)C)OC(=O)CCS (stereo not shown) [3-mercapto propionyl carnitine ethyl ester] | 228 mg/kg | 90% | 85% | 60% | 40% | 100% |  |  | 79.8 ± 4% | 39.5 ± 5% |  | +0.8% | +1.0% | +0.6% |  |  |  |
| CC(=O)N[C@@H](CS)C(=O)O [Acetylcysteine, acetylcysteine, reference compound] |  |  |  |  |  |  |  |  | 75.6 ± 7% | 23.8 ± 5% |  |  |  |  |  |  |  |
| CC(C)COC(=O)CC(C[N+](C)(C)C)OC(=O)CCCS (stereo not shown) [4-mercapto butyryl carnitine isobutyl ester] | 231 mg/kg | 100% | 75% | 55% | 25% | 75% |  |  |  |  |  |  |  |  | +0.5% | +0.9% | +2.1% |
| COC(=O)CC(C[N+](C)(C)C)OC(=O)CCCCS (stereo not shown) [5-mercapto valeryl carnitine methyl ester] | 219 mg/kg | 85% | 60% | 40% | 45% | 100% |  |  | 90.2 ± 6% | 48.4 ± 4% |  | +0.5% | +1.0% | +0.3% |  |  |  |
